Reference: patent US20250250230A1, “HETEROCYCLIC COMPOUND” (TAKEDA PHARMACEUTICAL COMPANY LIMITED, priority 2022, published 2025)

target: T1, human orexin type 2 receptor (Homo sapiens, UniProt O43614); assay: Measurement of orexin type 2 receptor agonist activity (calcium fluorescence, Fluo-4 AM, FDSS); format: cell-based; settings: test compound 3 μM; CHO cells expressing human OX2 receptor; DMSO = 0%, orexin A (human) = 100%
T1 construct: expressed in transfected cells
T1 sequence (O43614 1-444): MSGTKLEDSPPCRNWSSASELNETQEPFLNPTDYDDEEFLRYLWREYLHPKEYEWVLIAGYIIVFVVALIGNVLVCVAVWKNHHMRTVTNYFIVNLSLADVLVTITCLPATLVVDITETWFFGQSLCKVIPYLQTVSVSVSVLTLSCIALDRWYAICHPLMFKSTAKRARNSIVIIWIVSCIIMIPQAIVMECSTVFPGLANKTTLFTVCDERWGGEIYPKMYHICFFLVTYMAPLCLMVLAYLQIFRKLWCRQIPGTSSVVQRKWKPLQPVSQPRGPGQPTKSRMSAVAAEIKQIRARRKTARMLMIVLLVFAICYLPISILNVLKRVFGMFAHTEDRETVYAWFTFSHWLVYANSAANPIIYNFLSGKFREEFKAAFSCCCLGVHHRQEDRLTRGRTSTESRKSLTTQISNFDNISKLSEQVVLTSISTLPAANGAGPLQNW
Method in brief: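 CHO-K1 cells stably expressing human OX2R were loaded with Fluo-4 AM (30 min 37 °C, 30 min RT) in HEPES-buffered HBSS with 0.1% BSA and probenecid. Calcium fluorescence was followed on FDSS for 2 min after compound addition; activity normalised to DMSO (0%) and 10 nM orexin A (100%).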

Compound | OX2R agonist activity (3 μM, %)
CS(=O)(=O)N[C@H]1CCCN(C(=O)[C@@H]2C[C@H]2c2ccccc2-c2c(F)cccc2F)C1 [Example 24, N-{(3S)-1-[(1R,2R)-2-(2′,6′-difluoro [1,1′-biphenyl]-2-yl)cyclopropane-1-carbonyl]piperidin-3-yl}methanesulfonamide] | 95%
CS(=O)(=O)NCC1N(C(=O)[C@@H]2C[C@@]2(F)c2ccccc2-c2c(F)cccc2F)CC1(F)F (stereo partly drawn) [Example 409, N-({(2R)-1-[(1S,2S)-2-(2′,6′-difluoro[1,1′-biphenyl]-2-yl)-2-fluorocyclopropane-1-carbonyl]-3,3-difluoroazetidin-2-yl}methyl)methanesulfonamide, or N-({(2S)-1-[(1S,2S)-2-(2′,6′-difluoro[1,1′-biphenyl]-2-yl)-2-fluorocyclopropane-1-carbonyl]-3,3-difluoroazetidin-2-yl}methyl)methanesulfonamide] | 100%
CS(=O)(=O)NC(C1CC1)[C@@H]1CCN1C(=O)[C@@H]1C[C@@]1(F)c1ccccc1-c1c(F)cccc1F (stereo partly drawn) [Example 394, N-[(R)-cyclopropyl{(2S)-1-[(1S,2S)-2-(2′,6′-difluoro[1,1′-biphenyl]-2-yl)-2-fluorocyclopropane-1-carbonyl]azetidin-2-yl}methyl]methanesulfonamide, or N-[(S)-cyclopropyl{(2S)-1-[(1S,2S)-2-(2′,6′-difluoro[1,1′-biphenyl]-2-yl)-2-fluorocyclopropane-1-carbonyl]azetidin-2-yl}methyl]methanesulfonamide] | 106%
CS(=O)(=O)NC1CCCCN(C(=O)C2CC2c2sccc2-c2c(F)cccc2F)C1 (racemic) [Example 233, a mixture of rac-N-[(3R)-1-{(1R,2R)-2-[3-(2,6-difluorophenyl)thiophen-2-yl]cyclopropane-1-carbonyl}azepan-3-yl]methanesulfonamide and rac-N-[(3S)-1-{(1R,2R)-2-[3-(2,6-difluorophenyl)thiophen-2-yl]cyclopropane-1-carbonyl}azepan-3-yl]methanesulfonamide] | 80%
O=C([C@@H]1C[C@H]1c1ccccc1-c1c(F)cccc1F)N1CCO[C@H](CNS(=O)(=O)N2CCC2)C1 [Example 338, N-({(2S)-4-[(1R,2R)-2-(2′,6′-difluoro[1,1′-biphenyl]-2-yl)cyclopropane-1-carbonyl]morpholin-2-yl}methyl)azetidine-1-sulfonamide] | 98%
CS(=O)(=O)NC1CCN(C(=O)C2CC2c2ccccc2-c2cc(F)ccc2F)C1 (racemic) [Example 80, a mixture of rac-N-{(3R)-1-[(1R,2R)-2-(2′,5′-difluoro[1,1′-biphenyl]-2-yl)cyclopropane-1-carbonyl]pyrrolidin-3-yl}methanesulfonamide and rac-N-{(3S)-1-[(1R,2R)-2-(2′,5′-difluoro[1,1′-biphenyl]-2-yl)cyclopropane-1-carbonyl]pyrrolidin-3-yl}methanesulfonamide] | 66%
CCS(=O)(=O)NC[C@@H]1[C@H](F)CN1C(=O)C1(COC)CC1c1ccc(F)cc1-c1c(F)cccc1F (stereo partly drawn) [Example 437, N-({(2R,3R)-3-fluoro-1-[(1R,2S)-1-(methoxymethyl)-2-(2′,5,6′-trifluoro[1,1′-biphenyl]-2-yl)cyclopropane-1-carbonyl]azetidin-2-yl}methyl)ethanesulfonamide, or N-({(2R,3R)-3-fluoro-1-[(1S,2R)-1-(methoxymethyl)-2-(2′,5,6′-trifluoro[1,1′-biphenyl]-2-yl)cyclopropane-1-carbonyl]azetidin-2-yl}methyl)ethanesulfonamide] | 99%
CS(=O)(=O)NC1CCN(C(=O)C2CC2c2c(F)cccc2-c2c(F)cccc2F)C1 (stereo not drawn) [Example 210, N-{1-[2-(2′,3,6′-trifluoro[1,1′-biphenyl]-2-yl)cyclopropane-1-carbonyl]pyrrolidin-3-yl}methanesulfonamide optical isomer] | 94%
CS(=O)(=O)NC1CCCN(C(=O)C2CC2c2sccc2-c2ccccc2F)CC1 (racemic) [Example 220, a mixture of rac-N-[(4R)-1-{(1R,2R)-2-[3-(2-fluorophenyl)thiophen-2-yl]cyclopropane-1-carbonyl}azepan-4-yl]methanesulfonamide and rac-N-[(4S)-1-{(1R,2R)-2-[3-(2-fluorophenyl)thiophen-2-yl]cyclopropane-1-carbonyl}azepan-4-yl]methanesulfonamide] | 79%
CC1(C(=O)N2CCC[C@H](NS(C)(=O)=O)CC2)CC1c1ccccc1-c1c(F)cccc1F (stereo partly drawn) [Example 246, N-{(4S)-1-[(1R,2S)-2-(2′,6′-difluoro[1,1′-biphenyl]-2-yl)-1-methylcyclopropane-1-carbonyl]azepan-4-yl}methanesulfonamide, or N-{(4S)-1-[(1S,2R)-2-(2′,6′-difluoro[1,1′-biphenyl]-2-yl)-1-methylcyclopropane-1-carbonyl]azepan-4-yl}methanesulfonamide] | 78%
CS(=O)(=O)NC[C@@H]1CCN1C(=O)C1(CO)CC1c1ccccc1-c1c(F)cccc1F (stereo partly drawn) [Example 365, N-({(2S)-1-[(1R,2S)-2-(2′,6′-difluoro[1,1′-biphenyl]-2-yl)-1-(hydroxymethyl)cyclopropane-1-carbonyl]azetidin-2-yl}methyl)methanesulfonamide, or N-({(2S)-1-[(1S,2R)-2-(2′,6′-difluoro[1,1′-biphenyl]-2-yl)-1-(hydroxymethyl)cyclopropane-1-carbonyl]azetidin-2-yl}methyl)methanesulfonamide] | 103%
CS(=O)(=O)NC1CCN(C(=O)C2CC2c2ccc(F)cc2-c2ccccc2Cl)C1 (racemic) [Example 134, a mixture of rac-N-{(3R)-1-[(1R,2R)-2-(2′-chloro-5-fluoro[1,1′-biphenyl]-2-yl)cyclopropane-1-carbonyl]pyrrolidin-3-yl}methanesulfonamide and rac-N-{(3S)-1-[(1R,2R)-2-(2′-chloro-5-fluoro[1,1′-biphenyl]-2-yl)cyclopropane-1-carbonyl]pyrrolidin-3-yl}methanesulfonamide] | 74%
CS(=O)(=O)NC([C@@H]1CCN1C(=O)[C@@H]1C[C@@]1(F)c1ccccc1-c1c(F)cccc1F)C1(O)CC1 (stereo partly drawn) [Example 418, N-[(R)-{(2S)-1-[(1S,2S)-2-(2′,6′-difluoro[1,1′-biphenyl]-2-yl)-2-fluorocyclopropane-1-carbonyl]azetidin-2-yl}(1-hydroxycyclopropyl)methyl]methane-sulfonamide, or N-[(S)-{(2S)-1-[(1S,2S)-2-(2′,6′-difluoro[1,1′-biphenyl]-2-yl)-2-fluorocyclopropane-1-carbonyl]azetidin-2-yl}(1-hydroxycyclopropyl)methyl]methanesulfonamide] | 99%
CN(C)S(=O)(=O)NCC1CCN1C(=O)C1CC1c1ccccc1-c1c(F)cccc1F (stereo not drawn) [Example 250, N′-({1-[2-(2′,6′-difluoro[1,1′-biphenyl]-2-yl)cyclopropane-1-carbonyl]azetidin-2-yl}methyl)-N,N-dimethylsulfuric diamide optical isomer] | 104%
CCS(=O)(=O)NC[C@@H]1[C@H](F)CN1C(=O)C1CC1(F)c1ccc(F)cc1-c1ccccc1Cl (stereo partly drawn) [Example 440, N-({(2R,3R)-1-[(1R,2R)-2-(2′-chloro-5-fluoro[1,1′-biphenyl]-2-yl)-2-fluorocyclopropane-1-carbonyl]-3-fluoroazetidin-2-yl}methyl)ethanesulfonamide, or N-({(2R,3R)-1-[(1S,2S)-2-(2′-chloro-5-fluoro[1,1′-biphenyl]-2-yl)-2-fluorocyclopropane-1-carbonyl]-3-fluoroazetidin-2-yl}methyl)ethanesulfonamide] | 91%
CC[C@@H]1CN(C(=O)[C@@H]2C[C@@]2(F)c2ccccc2-c2c(F)cccc2F)[C@H]1CNS(C)(=O)=O [Example 381, N-({(2R,3R)-1-[(1S,2S)-2-(2′,6′-difluoro[1,1′-biphenyl]-2-yl)-2-fluorocyclopropane-1-carbonyl]-3-ethylazetidin-2-yl}methyl)methylsulfonamide] | 90%
COCC1(C(=O)N2CC[C@H]2CNS(C)(=O)=O)CC1c1ccccc1-c1c(F)cccc1F (stereo partly drawn) [Example 347, N-({(2S)-1-[(1R,2S)-2-(2′,6′-difluoro[1,1′-biphenyl]-2-yl)-1-(methoxymethyl)cyclopropane-1-carbonyl]azetidin-2-yl}methyl)methanesulfonamide, or N-({(2S)-1-[(1S,2R)-2-(2′,6′-difluoro[1,1′-biphenyl]-2-yl)-1-(methoxymethyl)cyclopropane-1-carbonyl]azetidin-2-yl}methyl)methanesulfonamide] | 95%
CC(C)NS(=O)(=O)NC[C@@H]1[C@H](F)CN1C(=O)[C@@H]1C[C@@]1(F)c1ccc(F)cc1-c1c(F)cccc1F [Example 425, N-({(2R,3R)-3-fluoro-1-[(1S,2S)-2-fluoro-2-(2′,5,6′-trifluoro[1,1′-biphenyl]-2-yl)cyclopropane-1-carbonyl]azetidin-2-yl}methyl)-N′-propan-2-ylsulfuric diamide] | 72%
